Several values for one entry are separate records, joined by “and”; a condition that tells them apart may be missing. Equal values may be shown once.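 Briefly, cells in 96-well plates were exposed to five compound concentrations for 48 h, and endpoints were estimated by linear interpolation. GI50: concentration for 50% inhibition of growth. TGI marks complete inhibition of growth.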
Legend:
Assay in all cases: NCI tumour cell line growth inhibition, 48 h
[1] = test system: HOP-92 NSCLC
[2] = test system: SW-620 colon
[3] = test system: SN12C renal
[4] = test system: SK-MEL-5 melanoma
[5] = test system: CCRF-CEM leukemia
[6] = test system: OVCAR-3 ovarian
[7] = test system: A549 NSCLC
[8] = test system: SR leukemia
[9] = test system: OVCAR-8 ovarian
[10] = test system: MDA-MB-231 breast

Row | SMILES | GI50 [1] [µM] | TGI [1] | GI50 [2] [µM] | TGI [2] [µM] | GI50 [3] [µM] | TGI [3] [µM] | GI50 [4] [µM] | TGI [4] [µM] | GI50 [5] [µM] | TGI [5] | GI50 [6] [µM] | TGI [6] [µM] | GI50 [7] [µM] | TGI [7] [µM] | GI50 [8] | TGI [8] | GI50 [9] | TGI [9] | GI50 [10] [µM] | TGI [10] [µM]
1 | CC(C)(C)OC(=O)NCCCCCCCCCCCCn1c2c(c3ccccc3c1=O)C(=O)c1ccccc1-2 | 16.8 | 39.9 µM | > 100 | > 100 | > 100 | > 100 | > 100 | > 100 | 43.3 | > 100 µM | > 100 | > 100 | > 100 | > 100 | 35 µM | > 100 µM | 49.8 µM | > 100 µM | 21 | 58.9
2 | CC(C)C(Br)C(=O)NCC(=O)O (stereo unspecified) | – | > 100 µM | – | > 100 | – | > 100 | – | > 100 | – | > 100 µM | – | > 100 | – | > 100 | – | > 100 µM | – | > 100 µM | – | > 100
3 | S=C(Nc1ccc(-c2nc3ccccc3s2)cc1)Nc1ccc(-c2nc3ccccc3s2)cc1 | 15.3 | 53.6 µM | 23.7 | 67.3 | 16.7 | 44.5 | 13.5 | 26.6 | 18.4 | 70.6 µM | 24.5 | > 100 | 22.4 | 78.5 | 21 µM | 49.5 µM | 19.9 µM | 49.4 µM | 13.7 | 35
4 | CN1C2C=CC(=O)C1C(C#N)C2 (stereo unspecified) | – | 57.7 µM and 93.5 µM | – | > 100 | – | > 100 | – | > 100 | – | 82.7 µM and > 100 µM | – | > 100 | – | > 100 | 22.7 µM and 61.6 µM | 81 µM and > 100 µM | 20.5 µM and 45.7 µM | 44.8 µM and > 100 µM | > 100 | > 100
5 | COc1ccc(C(=O)Cn2c(C(=O)c3ccc(Cl)cc3)nc(-c3ccccc3)c2-c2ccccc2)cc1 | 7.43 | 83.1 µM | > 100 | > 100 | > 100 | > 100 | > 100 | > 100 | – | – | > 100 | > 100 | 60 | > 100 | > 100 µM | > 100 µM | > 100 µM | > 100 µM | 44 | > 100
6 | CN(C)CCN=c1nc2c(c(N)n1-c1ccccc1)c(=S)n(-c1ccccc1)c(=S)n2-c1ccccc1 | 1.62 | 12.6 µM | 1.93 | 4.87 | 6.21 | 20.5 | 1.49 | 2.93 | 4.68 | – | 2.89 | 11.6 | 4.86 | 19.8 | 1.36 µM | 3.34 µM | 4.76 µM | 17.6 µM | 1.16 | 4.05
7 | COc1ccc(CN2c3ccccc3Sc3ccccc32)cc1O | 0.502 | 17.5 µM | 0.504 | 17.7 | 1.29 | 22.3 | 0.438 | 11.3 | 0.411 | 22.4 µM | – | – | 0.471 | 16.7 | 0.407 µM | 30.7 µM | 0.508 µM | 20.3 µM | 0.668 | 18.1
8 | CCOc1ccc2cc(-c3nn(CC4CCN(C)CC4)c4ncnc(N)c34)ccc2c1 | 5.9 | 26.1 µM | 15.7 | 31.7 | 12 | 32.1 | 15.8 | 29.3 | 16.8 | 55.2 µM | 16.2 | 39.7 | 17.9 | 40.2 | 3.63 µM | 18 µM | – | – | 4.52 | 18.4
9 | Cc1nc(C(=O)OCc2ccccc2)cc(OCc2ccccc2)c1C | 14.7 | 30.8 µM | 17.8 | 44.2 | 17.5 | 35.4 | 10.7 | 26 | 20.5 | 62.1 µM | 11.4 | 26.2 | 19.3 | 49.4 | – | 28.6 µM | 21.9 µM | 69.2 µM | 14.6 | 34.9
10 | CCCCC[C@H]1C/C=C2/C(=O)C=C[C@@H]2C/C=C\CCCC(=O)O1 | 0.577 | 2.18 µM | 0.177 | 1.06 | 0.18 | 2.44 | 0.0844 | 0.168 | 0.106 | 5 µM | 0.182 | 0.664 | 0.115 | 0.313 | 0.124 µM | 50 µM | 0.149 µM | 5.12 µM | 0.212 | 6.39
11 | CCN(CC)c1ccc(/C=N/N=C(N)N)cc1 | 2.27 | 13.5 µM | 3.08 | 13.6 | 4.88 | 27.2 | 3.16 | 13.4 | 3.5 | 67.7 µM | 2.21 | 4.91 | 4.99 | > 100 | 2.03 µM | 15 µM | 5.06 µM | 23.5 µM | 10.9 | 32.6
12 | N#C/C(=C/C=C/c1cccc(Cl)c1)S(=O)c1ccccc1 (stereo unspecified) | 0.398 | 1.62 µM | – | – | 0.359 | 1.42 | 1.79 | 3.61 | 0.296 | 1.21 µM | 0.253 | 0.782 | 1.21 | 3.12 | 0.227 µM | 2.67 µM | 0.256 µM | 0.629 µM | 0.384 | 1.4
13 | COc1ccc(C2=NNC(c3sc(Cl)nc3Cl)C2)cc1 (stereo unspecified) | – | – | 4.87 | 23.6 | 4.02 | 16.7 | 3.51 | 14.3 | 2.75 | 15.7 µM | 3.26 | 8.79 | 29.8 | > 100 | 2.54 µM | 19.7 µM | 3.6 µM | 21.5 µM | 3.12 | 14

From PubChem BioAssay (NCI)
